The results in this text go back to patent US20250171462A1 (NICO Therapeutics, Inc., priority 2022, published 2025).

The experiment has as its target T1, full-length SARM1 (FL-SARM1) (Homo sapiens, UniProt Q6SZW1).
T1 sequence (Q6SZW1 28-724): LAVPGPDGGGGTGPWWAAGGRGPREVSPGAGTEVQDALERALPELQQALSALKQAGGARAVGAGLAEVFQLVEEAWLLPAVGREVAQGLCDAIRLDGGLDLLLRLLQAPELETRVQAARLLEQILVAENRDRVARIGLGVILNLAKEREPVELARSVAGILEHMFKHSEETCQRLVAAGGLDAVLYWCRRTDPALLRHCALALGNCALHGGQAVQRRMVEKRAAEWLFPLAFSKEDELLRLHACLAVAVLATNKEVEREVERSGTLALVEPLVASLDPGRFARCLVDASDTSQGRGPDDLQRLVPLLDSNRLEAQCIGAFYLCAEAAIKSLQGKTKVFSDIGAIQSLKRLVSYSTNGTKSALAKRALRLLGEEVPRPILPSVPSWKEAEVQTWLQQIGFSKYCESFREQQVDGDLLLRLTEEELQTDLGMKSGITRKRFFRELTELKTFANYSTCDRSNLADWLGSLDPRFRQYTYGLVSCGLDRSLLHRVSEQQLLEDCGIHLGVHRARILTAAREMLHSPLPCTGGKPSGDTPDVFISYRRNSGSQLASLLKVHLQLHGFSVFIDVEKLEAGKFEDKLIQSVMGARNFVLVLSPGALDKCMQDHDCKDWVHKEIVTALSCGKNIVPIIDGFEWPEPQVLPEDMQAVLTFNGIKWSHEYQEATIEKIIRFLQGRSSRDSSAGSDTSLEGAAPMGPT
The experiment in a line: FL-SARM1 cellular lysate assay (NAD/NADH-Glo detection of remaining NAD+, NMN-activated). As to conditions: for IC50: Activity (μM) (IC50).

[1] abbreviates: read-out: Activity (IC50 class), 11 point curve.
[2] abbreviates: Activity (IC50 class), 11 point curve.

pIC50: −log10 of the molar value. Read-outs that look alike come from different tables or passages of the source.

Procedure: Preparation of full-length SARM1 (FL-SARM1) lysate: HEK293T cells (ATCC: CRL-3216) were grown on 150 mm TC-treated dishes to 80-90% confluency in complete DMEM (DMEM (Thermo Fisher: 11965175) supplemented with 10% HI—FBS (VWR: 10802-772), 1× Pen/Strep (Thermo Fisher: 15140122), 1×NEAA (Thermo Fisher: 1140050), 1× glutamax (Thermo Fisher: 35050061), and 1 mM sodium pyruvate (Thermo Fisher: 11360070)) at 37° C. and 5% CO2. One hour prior to transfection, the media was replaced with fresh, 37° C. complete DMEM (20 mL per one 150 mm dish) supplemented with additional 10 mM glucose (Alfa Aesar AAJ60067EQE). Per one 150 mm dish, 30 μg FL-SARM1 (SEQ. ID. 1; cloned in-house) plasmid was dissolved in 1 mL DMEM at ambient temperature and were mixed by inverting the tube 8-10 times. 90 μL of GenJet™ in vitro DNA transfection reagent (Ver2) was dissolved in 1 mL DMEM at ambient temperature and were mixed by inverting the tube 8-10 times. The plasmid and transfection agent solutions were combined, mixed by 8-10 inversions and incubated for 10 minutes at ambient temperature. 2 mL of this transfection mixture was added to each dish containing HEK293T cells as prepared above followed by a gentle mixing of 4-5 horizontal rotations. The dishes were incubated at 37° C. and 5% CO2 for 24 h. The dishes were removed from the incubator, the medium was aspirated and the cells were scraped off using cell scrapers in ice-cold 1×PBS (5 mL/dish, Thermo Fisher Scientific 10010023). The collected cells were centrifuged at 300 g for 5 minutes at 4° C. The supernatant was aspirated and the pellet was frozen at −80° C. until needed. The cell pellet from 30 dishes was dissolved in 30 mL 1×PBS supplemented with 4 tablets of Complete, Mini EDTA-free protease inhibitor cocktail at 4° C. This mixture was sonicated on ice for 10 minutes at 50% amplitude with a 1 second on/1 second off interval using a Model 120 sonicator (Thermo Fisher Scientific, FB120110). The lysate was centrifuged at 16000 g for 10 minutes at 4° C.
To a white 384-well Proxiplate (PerkinElmer, PE-6008280) was added 50 nL/well of a DMSO solution containing test compounds followed by 7.5 μL/well of a 0.067 mg/mL solution of SARMi cellular lysate in reaction buffer (DPBS containing CHAPSO (0.1%) and fatty acid free BSA (0.032%)). The plate was centrifuged for 1 minute at 1000 RPM and then placed in an incubator at 23° C. for 15 minutes. To the wells were added 2.5 μL/well of a solution containing 40 M NAD^+ and 4 mM nicotinamide mononucleotide (NMN) in reaction buffer. The plate was centrifuged for 1 min at 1000 RPM, the plate was sealed and placed in an incubator at 23° C. for 3.5 hours before adding 3.5 μL/well of NAD/NADH-Glo™ solution (preparation as described by Promega using the extended detection protocol). The plate was centrifuged for 1 minute at 1000 RPM and then incubated at 23° C. for 20 minutes. 1 μL/well of a 3.625 mM solution of menadione in DMSO was added and the plate was centrifuged for 1 minute at 1000 RPM. Relative light units (RLU) were recorded using an Envision plate reader at a height of 6.5 mm.
IC50 values were calculated from an 11 point curve using ½ log dilutions using a four-parameter logistic regression curve fit.

`CCc1ccc(NC(=O)N2C3CCCC2C3)cc1-c1ccccn1` [Example 30, N-(4-ethyl-3-(pyridin-2-yl)phenyl)-6-azabicyclo[3.1.1]heptane-6-carboxamide]: the IC50 (in general, the midpoint of a concentration-inhibition curve) (11 point curve) came out at 0.2 µM. Besides, the pIC50 (in general, the IC50 on a negative log10 scale, so that one unit is a factor of ten) under setting [1] is 6.00 to 10.00.
The like results for `Cc1ccc(NC(=O)N2C3C[C@@H]2CC[C@H]3C)cc1-c1ccccn1` (single isomer, unassigned) [Example 48, trans-2-methyl-N-(4-methyl-3-(pyridin-2-yl)phenyl)-6-azabicyclo[3.1.1]heptane-6-carboxamide] were, in that order, 0.1 µM and 6.00 to 10.00.
Consider `Cc1ccc(NC(=O)C(C)C2CCC2)cc1-c1cccnn1` (racemic) [Example 297, 2-cyclobutyl-N-(4-methyl-3-pyridazin-3-ylphenyl)propanamide], for which the pIC50 under setting [2] is 5.00 to 6.00. In addition, where the note is “11 point curve”, the IC50 came out at 6.5 µM.
Taken in the same sequence, the figures for `Cc1ccc(NC(=O)[C@H]2C[C@@H]3C[C@@H]3N2c2ncccn2)cc1-c1ncc(F)cn1` [Example 269, (1S,3R,5S)-N-[3-(5-fluoropyrimidin-2-yl)-4-methylphenyl]-2-pyrimidin-2-yl-2-azabicyclo[3.1.0]hexane-3-carboxamide] were less than 5.00 and 47 µM.
Under setting [2], `Cc1ccc(NC(=O)CC2CCC2)cc1-c1ncccc1F` [Example 165, 2-cyclobutyl-N-[3-(3-fluoropyridin-2-yl)-4-methylphenyl]acetamide] showed a negative-log IC50 (pIC50) of 5.00 to 6.00. Also, inhibition (11 point curve) was half-maximal at 5.3 µM (IC50).
Taken in the same sequence, the figures for `Cc1ccc(NC(=O)N2C3CCC2c2cnccc23)cc1-c1ccccn1` (stereo not drawn) [Example 26, N-(4-methyl-3-(pyridin-2-yl)phenyl)-5,6,7,8-tetrahydro-5,8-epiminoisoquinoline-9-carboxamide] were 5.00 to 6.00 and 1.3 µM.
As for `Cc1ccc(NC(=O)N2C3C[C@@H](C)C[C@H]2C3)cc1-c1nccc(OC(F)F)n1` [Example 233, cis-N-[3-[4-(difluoromethoxy)pyrimidin-2-yl]-4-methylphenyl]-3-methyl-6-azabicyclo[3.1.1]heptane-6-carboxamide], the IC50 (11 point curve) was 0.1 µM. The negative-log IC50 (pIC50) under setting [1] is 6.00 to 10.00.
As for `COCC12CC(C)CC(C1)N2C(=O)Nc1cc(-c2ncccn2)c(C)cc1F` (single isomer, unassigned) [Example 199, trans-N-(2-fluoro-4-methyl-5-pyrimidin-2-ylphenyl)-1-(methoxymethyl)-3-methyl-6-azabicyclo[3.1.1]heptane-6-carboxamide], the pIC50 under setting [2] was 5.00 to 6.00. Also, for the setting “11 point curve”, the IC50 amounted to 4.3 µM.
The like results for `Cc1ccc(NC(=O)[C@H]2C3CC(F)(F)C[C@H]32)cc1-c1cccnn1` (stereo partly drawn) [Example 288, cis-3,3-difluoro-N-(4-methyl-3-pyridazin-3-ylphenyl)bicyclo[3.1.0] hexane-6-carboxamide] were, in that order, less than 5.00 and 15 µM.
`Cc1ccc(NC(=O)N2[C@@H]3C[C@@H](C)C[C@H]2C3)cc1-c1cncc(C#N)n1` [Example 238, cis-N-[3-(6-cyanopyrazin-2-yl)-4-methylphenyl]-3-methyl-6-azabicyclo[3.1.1]heptane-6-carboxamide]: the IC50 (11 point curve) amounted to 0.04 µM. The negative-log IC50 (pIC50) under setting [1] is 6.00 to 10.00.
Consider `Cc1ccc(NC(=O)C2C3CCC2(c2ccccn2)C3)cc1-c1ncc(F)cn1` (mixture of isomers) [Example 318], for which the negative logarithm of the IC50 (pIC50) under setting [2] is 5.00 to 6.00. This compound yielded a half-maximal inhibitory concentration (IC50) (11 point curve) of 1.5 µM.
Under setting [2], `Cc1ccc(NC(=O)N2C3C[C@H](O)C[C@H]2C3)cc1-c1ccccn1` [Example 39, trans-3-hydroxy-N-(4-methyl-3-(pyridin-2-yl)phenyl)-6-azabicyclo[3.1.1]heptane-6-carboxamide] showed a negative logarithm of the IC50 (pIC50) of 5.00 to 6.00. The compound further registered an IC50 (11 point curve) of 3.8 µM.
In turn, `Cc1cc(C(F)(F)F)c(NC(=O)N2[C@@H]3C[C@@H](C)C[C@H]2C3)cc1-c1cccnn1` [Example 244, cis-3-methyl-N-[4-methyl-5-pyridazin-3-yl-2-(trifluoromethyl)phenyl]-6-azabicyclo[3.1.1]heptane-6-carboxamide] showed a negative logarithm of the IC50 (pIC50) under setting [2] of less than 5.00. Where the note is “11 point curve”, this compound returned a concentration for half-maximal inhibition (IC50) of 16 µM.
Taken in the same sequence, the figures for `Cc1ccc(NC(=O)CC2CCC2)cc1-c1cnccn1` [Example 166, 2-cyclobutyl-N-(4-methyl-3-pyrazin-2-ylphenyl)acetamide] were less than 5.00 and 19 µM.
In the case of `Cc1ccc(NC(=O)N2C3CCCC2C3)cc1-c1ncccc1C#N` [Example 33, N-(3-(3-cyanopyridin-2-yl)-4-methylphenyl)-6-azabicyclo[3.1.1]heptane-6-carboxamide], the pIC50 under setting [2] is 5.00 to 6.00. For the setting “11 point curve”, this compound yielded a half-maximal inhibitory concentration (IC50) of 1.2 µM.
As for `Cc1ccc(NC(=O)N2CCOc3ccccc3C2)cc1-c1ccccn1` [Example 102, N-(4-methyl-3-pyridin-2-ylphenyl)-3,5-dihydro-2H-1,4-benzoxazepine-4-carboxamide], for the setting “11 point curve”, inhibition was half-maximal at 0.9 µM (IC50). Besides, under setting [1], the pIC50 was 6.00 to 10.00.
As for `Cc1ccc(NC(=O)N2C[C@H]3C[C@@H]2CN3c2ccccc2)cc1-c1ccccn1` [Example 38, (1R,4R)-N-(4-methyl-3-(pyridin-2-yl)phenyl)-5-phenyl-2,5-diazabicyclo[2.2.1]heptane-2-carboxamide], the pIC50 under setting [2] is 5.00 to 6.00. This compound gave an IC50 (11 point curve) of 7.7 µM.
`CO[C@@H]1C[C@H](C(=O)Nc2ccc(C)c(-c3ncc(F)cn3)c2)N(c2ncccn2)C1` [Example 324] showed a pIC50 under setting [2] of less than 5.00. This compound also yielded an IC50 (11 point curve) of 17 µM.
Turning to `Cc1ccc(NC(=O)N2[C@@H]3C[C@@H](C)C[C@H]2C3)cc1-c1cc(OC(F)F)cnn1` [Example 235, cis-N-[3-[5-(difluoromethoxy)pyridazin-3-yl]-4-methylphenyl]-3-methyl-6-azabicyclo[3.1.1]heptane-6-carboxamide], half-maximal inhibition (11 point curve) (IC50) was put at 0.06 µM. Also, the negative logarithm of the IC50 (pIC50) under setting [1] was 6.00 to 10.00.
The like results for `Cc1ccc(NC(=O)C2CC3CC[C@H]2C3)cc1-c1ccccn1` (single isomer, unassigned) [Example 139, cis-N-(4-methyl-3-pyridin-2-ylphenyl)bicyclo[2.2.1]heptane-2-carboxamide] were, in that order, 0.2 µM and 6.00 to 10.00.
The like results for `Cc1ccc(NC(=O)N2C3CC2CN(CC(F)F)C3)cc1-c1ccccn1` [Example 5, 3-(2,2-difluoroethyl)-N-(4-methyl-3-(pyridin-2-yl)phenyl)-3,6-diazabicyclo[3.1.1]heptane-6-carboxamide] were, in that order, 0.8 µM and 6.00 to 10.00.
In turn, `Cc1ccc(NC(=O)[C@H]2[C@@H]3CC[C@@H](C3)N2c2ncccn2)cc1-c1ncc(F)cn1` [Example 322] gave a pIC50 under setting [2] of less than 5.00. Where the note is “11 point curve”, this compound showed a 50% inhibitory concentration (IC50) of 13 µM.
`Cc1ccc(NC(=O)N2C3CCCC2C3)cc1-c1cccc(C#N)n1` [Example 44, N-(3-(6-cyanopyridin-2-yl)-4-methylphenyl)-6-azabicyclo[3.1.1]heptane-6-carboxamide] registered an IC50 (11 point curve) of 0.1 µM. Moreover, under setting [1], the pIC50 is 6.00 to 10.00.
`COc1ccnc(-c2cc(NC(=O)N3C4CCCC3C4)ccc2C)n1` [Example 65, N-(3-(4-methoxypyrmidin-2-yl)-4-methyl-phenyl)-6-azabicyclo[3.1.1]heptane-6-carboxamide] showed a pIC50 under setting [2] of 5.00 to 6.00. In addition, inhibition (11 point curve) was half-maximal at 2.3 µM (IC50).
The like results for `Cc1ccc(NC(=O)C2C3CCC2CC3)cc1-c1ncccn1` (stereo not drawn) [Example 106, N-(4-methyl-3-pyrimidin-2-ylphenyl)bicyclo[2.2.1]heptane-7-carboxamide] were, in that order, 5.00 to 6.00 and 1 µM.
The like results for `CC[C@H]1C[C@H]1C(=O)Nc1ccc(C)c(-c2ccccn2)c1` (single isomer, unassigned) [Example 110, cis-2-ethyl-N-(4-methyl-3-pyridin-2-ylphenyl)cyclopropane-1-carboxamide] were, in that order, 5.00 to 6.00 and 6 µM.
Under setting [2], `Cc1c(C#N)cc(NC(=O)N2C3CCCC2C3)cc1-c1ccccn1` [Example 83, N-(3-cyano-4-methyl-5-pyridin-2-ylphenyl)-6-azabicyclo[3.1.1]heptane-6-carboxamide] gave a negative-log IC50 (pIC50) of less than 5.00. In addition, under “11 point curve”, the half-inhibitory concentration (IC50) was determined as 35 µM.
`Cc1ccc(NC(=O)[C@H]2C[C@H]3C[C@H]3N2c2ncccn2)cc1-c1ncccn1` [Example 266, (1R,3R,5R)-N-(4-methyl-3-pyrimidin-2-ylphenyl)-2-pyrimidin-2-yl-2-azabicyclo[3.1.0]hexane-3-carboxamide] had a negative-log IC50 (pIC50) under setting [2] of 5.00 to 6.00. This compound showed an IC50 (11 point curve) of 4.2 µM.
The like results for `Cc1ccc(NC(=O)N2CC3CC3(c3ccccc3)C2)cc1-c1ccccn1` (stereo not drawn) [Example 94, N-(4-methyl-3-pyridin-2-ylphenyl)-1-phenyl-3-azabicyclo[3.1.0]hexane-3-carboxamide] were, in that order, less than 5.00 and 15 µM.
The like results for `Cc1ccc(NC(=O)[C@@H]2CC2(F)F)cc1-c1ncccc1C` [Example 156, (1S)-2,2-difluoro-N-[4-methyl-3-(3-methylpyridin-2-yl)phenyl]cyclopropane-1-carboxamide] were, in that order, 5.00 to 6.00 and 2.5 µM.
